Positions of bridges follow the written chain, without caps; N, C: chain ends. Non-standard residues stand in square brackets, D forms with d. Residues, ends and D or L forms follow the SMILES beside them. Chains are numbered I, II in the order given. Gly(N-piperonyl) = O=C(O)CNCc1ccc2c(c1)OCO2; N(4-MeOBn)Gly = COc1ccc(CNCC(=O)O)cc1; Nrpe = C[C@@H](NCC(=O)O)c1ccccc1; Nlys = NCCCCNCC(=O)O
Tests used:
[1] = Lipid ELISA-like binding assay
Procedure: The direct binding of PPS1 to PS was tested. An ELISA-like assay was used. Two main lipids typically found on cell membrane, PS and PC, were immobilized separately on a 96-well plates and biotinylated PPS1 was incubated at an increasing concentration gradient. Presence of bound PPS1 was detected by HRP-streptavidin after appropriate blocking and washing. (FIG. 11A), PC was selected as the control because it is the most abundant neutral phospholipid found in the outer leaflet of the normal cell membranes. […] This indicates […] has specificity to PS over PC.
ELISA binding assay on PS and PC: PS and PC (Avanti Polar Lipids) were dissolved in hexane at 10 μg/ml concentration and added to Immulon 1B “U” bottom microtiter plates (Thermo) 50 μl/well. hexane was allowed to evaporate at room temp (in the hood). Plates were blocked by adding 200 μl 1% BSA in PBS to each well and incubated for 1 hour. Each well was washed with 3× w/200 μl PBS. Serial dilutions (0.5 μM to 0.0078 μM) of biotinylated PPS1 and PPS2 were dissolved in blocking buffer (100 μl/well) and incubated for 1 hr on shaker. Washed 5× w/200 μl PBS. Added 100 μl streptavidin-HRP (1:2000 in blocking buffer) to each well and incubated for 30 min. […] Stopped the reaction with 100 μl 0.18M H2SO4 Read OD at 490 nm.
Since PS is selectively exposed on the surface of HCC4017 cells compared with HBEC30KT, it was examined if PPS1D1 (FIG. 9B and FIG. 72) binds to PS directly. In an ELISA-like assay, PS and PC were coated separately on 96-well plates, biotinylated PPS1D1 (FIG. 65) was introduced in a concentration gradient and the bound compound was detected using standard streptavidin-HRP system.
Lipids (Avanti Polar Lipids) were dissolved in hexane at 10 μg/ml and coated on to Immulon 1B “U” bottom microtiter plates (ThermoFisher, MA). […] Plates were washed with 5× PBS and binding was detected with streptavidin-HRP (1:2000 in blocking buffer) followed by 100 μl OPD (Sigma-Aldrich). The reaction was stopped with 100 μl 0.18M H2SO4 and absorbance was read at 490 nm using the spectrophotometer (Spectramax i3, Molecular Devices, CA).

HBEC3kt cells = assay: MTS cell viability assay; assay type: cell-based, human; conditions: serial dilutions
Procedure: After confirming the binding and specificity of the PPS1 on HCC4017 lung cancer cells, whether this compound has any biological effects on HCC4017 lung cancer cells was assayed. The gold standard cell viability (MTS) assay was used. HCC4017 cells and HBEC30kt and HBEC3kt cells were grown in 96 well plates on day 1, then treated by serial dilution of PPS1 and control compound C462 on day 2, and the viable cell count was measured using MTS reagent on day 3. […] On one of the repetitive experiments of this assay, Cystinylated-PPS1 compound was included (FIG. 6A). This was the intermediate compound used to attach the FITC-malemide for binding assays described previously. […] The only difference between this Cystinylated-PPS1 and the original PPS1 compound was just a single cysteine amino acid at the C-terminal. […]
A homo-dimeric version of PPS1 was synthesized. […] The resulting dimeric version of the PPS1 compound, PPS1D1 (FIG. 6C), and the analogous dimeric versions of scrambled PC2, PC2D1 (FIG. 6E), and control compound C462, PC462D1 (FIG. 82), were then evaluated for activity. […] As described above, HCC4017 cells and HBEC30kt and HBEC3kt cells were grown in 96 well plates on day 1, treated serial dilutions of PPS1, PPS1D1, C462 and C462D1 on day 2, and viable cell count was measured using MTS reagent on day 3. […]

HCC4017 cells = assay: FACS binding assay; set-up: species or system human
Procedure: FACS binding assays were conducted to further quantify the binding event of the PPS1 monomer and PPS1D1 dimer.

## COc1ccc(CN(CC(=O)N(CCCCN)CC(=O)N[C@@H](CCCCN)C(=O)N[C@H](CCCCN)C(=O)N[C@@H](CCSC)C(=O)NCCCC[C@H](NC(=O)[C@H](CCSC)NC(=O)[C@@H](CCCCN)NC(=O)[C@H](CCCCN)NC(=O)CN(CCCCN)C(=O)CN(Cc2ccc(OC)cc2)C(=O)CN(C(=O)CN(Cc2ccc3c(c2)OCO3)C(=O)CN[C@H](C)c2ccccc2)[C@H](C)c2ccccc2)C(N)=O)C(=O)CN(C(=O)CN(Cc2ccc3c(c2)OCO3)C(=O)CN[C@H](C)c2ccccc2)[C@H](C)c2ccccc2)cc1 [PPS1D1] (I: H-[Nrpe][Gly(N-piperonyl)][Nrpe][N(4-MeOBn)Gly][Nlys]K[dK]MK-NH2 / II: H-[Nrpe][Gly(N-piperonyl)][Nrpe][N(4-MeOBn)Gly][Nlys]K[dK]M; amide I:9-II:C; N-terminus assumed)
[1]; PC-coated ELISA plates
  binding to PC: very high specificity over the PC
[1]; PS-coated ELISA plates
  binding to PS: strongest affinity
[1]; PS-coated ELISA plates, biotinylated compound, streptavidin-HRP
  Kd: ~55 nM
HBEC3kt cells
  activity on normal HBEC3kt cells: did not have any activity
HCC4017 cells
  improvement of binding of dimeric version over PPS1: about 175 fold
HCC4017 cells; FACS
  Kd: 80 nM

Source: patent US10849875B2, “Cancer specific lipid targeted peptidomimetics” (University of Houston System, priority 2015, dated 2020)
